# Literature values, collected in patent US9682081B2, “Pharmaceutical gastro-retentive solid oral dosage form of nilotinib” (SUN PHARMACEUTICAL INDUSTRIES LIMITED, priority 2013, dated 2017).
# Experiments:
# [1] = Class IV means low/moderate aqueous solubility and low permeability
# [2] = 25° C., pH 4.5 and higher
smiles,measurement,setting,value
"Cc1cn(-c2cc(NC(=O)c3ccc(C)c(Nc4nccc(-c5cccnc5)n4)c3)cc(C(F)(F)F)c2)cn1 [Nilotinib, 4-methyl-N-[3-(4-methyl-1H-imidazol-1-yl)-5-(trifluoromethyl)phenyl]-3-[[4-(3-pyridinyl)-2-pyrimidinyl]amino]-benzamide]",Biopharmaceutical Classification System (BCS) class,[1],Class IV
same,solubility in aqueous solutions,[2],practically insoluble
